Assay results reported in patent US20110081317A1, “Enhancing Gene Transfer” (UNIVERSITY OF ROCHESTER, priority 2007, published 2011).
Peptide text beside a SMILES is read from it. * marks the point of attachment. Cbz = O=C(OCc1ccccc1)*

How the values were obtained:
HEK 293 cells [1] = experiment: Phage-mediated luciferase gene transfer in HEK 293 cells; format: cell-based, Human; settings: for effect on phage-mediated luciferase gene transfer: MOI 1×10^6, omeprazole 50 μM, brefeldin A 500 ng/ml, chloroquine 50 μM for 24 h
Method: (§1) Preparation of bacteriophage lambda lysogens and vector production. The λD1180(luc) lysogen (Dam15 del EcoRI-Sac1 clts857 nin5 Sam100) has been described (Eguchi et al., J. Biol. Chem. 276(28):26204-10, 2001). The λD1180(luc) phage contains a firefly luciferase reporter gene under the regulatory control of the human cytomegalovirus immediate-early promoter. λD1180(luc) phage particles were prepared from E. coli lysogens that were stably transformed with either a plasmid encoding wildtype gpD or plasmids encoding gpD fusion proteins of interest, as described (Zanghi et al., Nucleic Acids Res. 33(18):e160, 2005). λ(luc) particles were purified by CsCl density gradient centrifugation and titered on LE392 E. coli cells (Zanghi et al., Nucleic Acids Res. 33(18):e160,2005).
(§2) Cells lines and phage transduction. Human embryonic kidney (HEK) 293 cells and COS simian kidney cells were obtained from American Type Culture Collection (ATCC), P.O. Box 1549, Manassas, Va. 20108. Cells were cultured in Dulbecco's Modified Eagle's Medium (DMEM) containing 10% fetal bovine serum, plus 2 mM L-glutamine and 100 U/ml penicillin, 100 μg/ml streptomycin. Twenty-four to forty-eight (24-48) hours following addition of phage to cells, cultures were washed with phosphate buffered saline (PBS) and lysed in passive lysis buffer (Promega Corporation, Madison, Wis.). Protein content in the lysates was quantitated by Bradford assay, and equal amounts of lysate (normalized in terms of protein content) were used in luciferase assays. Luciferase assay data are reported in relative light units.
(§3) To analyze the function of the proteasome in phage-mediated gene transfer, HEK 293A cells and COS-7 cells were incubated with luciferase encoding phage particles, in the presence or absence of three different pharmacologic inhibitors of proteasome activity (lactacystin, bortezomib and MG132). Lactacystin is an irreversible inhibitor of the 20S-proteasome, while bortezomib and MG132 are reversible inhibitors of the 26S-proteasome complex. […] The latter phage were generated by producing genetically gpD-deficient lambda phage particles in E. coli host cells that expressed a recombinant derivative of gpD, fused to a truncated PEST-like motif derived from seeligeriolysin O, a cholesterol-dependent cytolysin of Listeria seeligeri.

COS cells = experiment: Phage-mediated luciferase gene transfer in COS cells; format: cell-based, simian; settings: luciferase at 48 h; for effect on phage-mediated luciferase gene transfer: MOI 1×10^6, omeprazole 50 μM, brefeldin A 500 ng/ml, chloroquine 70 μM for 24 h
Method: as §1, §2, §3

HEK 293 cells [2] = experiment: Measurement of endosomal pH by flow cytometry of fluorescein/tetramethylrhodamine dextran; format: cell-based, Human; settings: 500 nM bafilomycin A1
Method: Measurement of endosomal pH. 5×10^5 HEK293 cells were preincubated in DMEM medium with 10% FBS (DMEM-10) overnight, after which the medium was replaced by DMEM-10 containing 2 mg/ml 70kD fluorescein and tetramethylrhodamine dextran (Invitrogen, Carlsbad, Calif.) plus either 100 nM or 500 nM bafilomycin A1 (BAF) or 2 mg/mL of nigericin (positive control) or no drug (negative control). One and a half (1.5) hours later, cells were washed in warm PBS and fresh media was added (with or without BAF or nigericin, as appropriate). Two (2) hours thereafter, cells were again washed with warm PBS, detached by trypsinization, washed with fresh media (with or without BAF or nigericin, as appropriate), and pelleted by centrifugation (5 minutes, 1000 g at 4° C.). Fluorescein
(F) and tetramethylrhodamine (T) fluorescence were quantitated by flow cytometric analysis using a FACS Calibur (Becton Dickinson). A standard curve was generated by suspending aliquots of cells (in the presence of 2 mg/ml of nigericin) in PBS at pH 4, 4.4, 5, 5.4, 6 and 6.4. The ratio of T/F fluorescence was then plotted against pH, to generate a standard curve; data from the bafilomycin-treated and non-treated cells were then extrapolated to this curve, in order to calculate endosomal pH.

HEK 293 cells [3] = experiment: Plasmid (pCMV:luc) luciferase expression in transiently transfected HEK 293 cells; format: cell-based, Human; settings: pCMV:luc transfected HEK 293; bortezomib 10 nM for 16 h; luciferase at 48 h
Method: Transient transfection of cells with plasmid DNA. 1×10^4 HEK 293 cells were seeded into 96-well plates and incubated overnight. Cells were then transfected with 50 ng of a mammalian expression plasmid encoding the luciferase reporter gene (pgWiz-CMV luciferase) using lipofectamine-2000 reagent in the presence or absence of lOnM bortezomib. Four (4) hours thereafter, media were removed and fresh media were added (with or without bortezomib). Cells were incubated for an additional 12 hours, and media were again replaced (this time without any exogenous drug). Forty-eight (48) hours after transfection of the cells, they were washed with PBS, incubated in 1× passive lysis buffer (Promega Corporation, Madison, Wis.) and lyzed using two freeze-thaw cycles. Protein content within the lysates was then quantitated using Bradford assay and equal amounts of lysate (normalized in terms of protein content) were used in luciferase assays. Luciferase assay data are reported in relative light units.
Therefore, a control experiment was performed to determine whether proteasome inhibition exerted an effect on luciferase expression from a non-phage based gene transfer agent containing the same luciferase expression cassette present in λD1180(luc). […]

HEK 293 cells [4] = experiment: Cytotoxicity / tolerability of proteasome inhibitors in HEK 293 cells; format: cell-based, Human
HEK 293 cells [5] = experiment: Quantitative analysis of intranuclear lambda phage genomic DNA (qPCR); format: cell-based, Human; settings: Tpell phage, MOI 1×10^6, bortezomib 10 nM for 16 h, harvest at 24 h, p<0.01 vs untreated
Method: Quantitative analysis of intranuclear lambda phage genomic DNA. HEK 293 cells were incubated with phage lambda at a MOI of 10^6 in the presence or absence of 10 nM bortezomib. Sixteen (16) hours later, media was replaced with bortezomib-free DMEM (10% FBS); twenty-four (24) hours thereafter, cells were washed with cold PBS and non-internalized phage particles were then removed by performing 3 cold acid washes (0.2M CH3COOH, 0.5M NaCl, pH2.5), as described (Lankes et al., J. Appl. Microbiol 102(5):1337-49, 2007). […] Phage genomic DNA in the nuclear lysate was quantitated by DNA qPCR analysis on a BioRad iCycler using a TaqMan® (Roche Molecular Systems, Inc., Pleasanton, Calif.) primer/probe set specific for the lambda phage integrase gene (Probe: FAM-5′-[sequence]-3′-TAMRA (SEQ ID NO:2), Forward-5′-[sequence]-3′ (SEQ ID NO:3), Reverse-5′-[sequence]-3′ (SEQ ID NO:4)). Cellular chromosomal DNA in the nuclear lysate was also quantitated by DNA qPCR analysis using a TaqMan® (Roche Molecular Systems, Inc., Pleasanton, Calif.) primer/probe set specific for the 18S ribosomal RNA gene (Probe: FAM-5′-[sequence]-3′-TAMRA (SEQ ID NO:5), Forward-5′-[sequence]-3′ (SEQ ID NO:6), Reverse-5′-[sequence]-3′ (SEQ ID NO:7)). […]

[6] = system: COS cells stably transfected with Fc receptor (CD64) and its associated gamma chain; experiment: Plasmid/Lipofectamine-mediated luciferase gene transfer in CD64-expressing COS cells; format: cell-based; settings: 30 min pretreatment, luciferase at 48 h; for increase in plasmid gene transfer efficiency: nocodazole 5 μM or paclitaxel 20 μg/ml
Method: FIG. 12 is a graph showing plasmid mediated luciferase gene transfer in cells treated with a microtubule inhibitor. A DNA plasmid encoding a luciferase reporter gene was mixed with Lipofectamine. This was then added to COS cells that had been stably transfected with expression plasmids encoding a cellular Fc receptor (CD64) and its associated gamma chain, in the presence or absence (DNA only and DNA+DMSO) of latrunculin A (120 nM), paclitaxel (20 μg/ml), or nocodazole (5 μM). Cells were harvested 48 hours later and lysed, and luciferase activity measured.
A DNA plasmid encoding a luciferase reporter gene was mixed with Lipofectamine™ (Invitrogen, Carlsbad, Calif.). This was then added to COS cells that had been stably transfected expression plasmids encoding a cellular Fc receptor
(CD64) and its associated gamma chain. DNA was added to cells that had been pretreated for 30 minutes in the presence or absence of the microtubule inhibitors, nocodazole (5 μM) or paclitaxel (20 μg/ml), or the actin polymerization inhibitor, latrunculin A (120 nM). Cells were harvested 48 hours after transfection and lysed, and luciferase activity was measured.

COS-7 cells = experiment: Adenovirus vector (AdLucGFP) mediated luciferase gene transfer in COS-7 cells; format: cell-based; settings: AdLucGFP MOI 10, latrunculin A 120 nM added 30 min before transduction
Method: FIG. 13 is a graph showing, in cells treated with paclitaxel, nocodazole, or latrunculin A, adenoviral-mediated luciferase gene transfer. Latrunculin A ([…]), paclitaxel (20 μg/ml), or nocodazole (5 μM) was added to cells 30 minutes prior to transduction of COS-7 cells with a luciferase-expressing adenovirus vector (AdLucGFP) at a multiplicity of infection (MOI) of 10. Media were changed 24-hours post-transfection, and cells were lysed in Passive Lysis Buffer 24 hours later. Protein quantities were standardized and luciferase activity was measured in the cell lysates. The mean control level is shown as Ad only.
Latrunculin A (120 nM), paclitaxel (Taxol® (Bristol Meyers Squibb, Princeton, N.J.), 20 μg/ml), or nocodazole (5 μM) was added to cells 30 minutes prior to transduction of COS-7 cells with a luciferase-expressing adenovirus vector (AdLucGFP) at a multiplicity of infection (MOI) of 10. Media were changed 24-hours post-transfection, and cells were lysed in Passive Lysis Buffer 24 hours later. Protein quantities were standardized and luciferase activity was measured in the cell lysates.

[7] = Tpell phage, luciferase at 48 h

SMILES: CC(C)C[C@@H](C=O)NC(=O)[C@H](CC(C)C)NC(=O)[C@H](CC(C)C)NC(=O)OCc1ccccc1 [MG132] (Cbz-Leu-Leu-Leu-aldehyde)
- enhancement of phage-mediated luciferase expression (HEK 293 cells [1]; WT and Tpell phage, MOI 1×10^6, MG132 1 μM for 16 h, luciferase at 48 h, vs untreated cells): 5-10 fold
- effect on phage-mediated luciferase gene expression (COS cells; WT and Tpell phage, MOI 1×10^6, lactacystin 3 μM, bortezomib 10 nM, MG132 1 μM for 16 h): strong trend

SMILES: CO/C1=C\C(C)=C\[C@@H](C)[C@@H](O)[C@@H](C)C/C(C)=C/C=C/[C@H](OC)[C@@H]([C@@H](C)[C@@H](O)[C@H](C)[C@@]2(O)C[C@@H](O)[C@H](C)[C@@H](C(C)C)O2)OC1=O [bafilomycin A1]
- effect on phage-mediated gene transfer (HEK 293 cells [1]; Tpell phage, MOI 1×10^6, bafilomycin A for 24 h, luciferase at 48 h): no effect
- effect on endosomal pH (HEK 293 cells [2]): sufficient to raise endosomal pH
- effect on phage-mediated gene transfer (COS cells; Tpell phage, MOI 1×10^6, bafilomycin A for 24 h): no effect

SMILES: CC(C)C[C@H](NC(=O)[C@H](Cc1ccccc1)NC(=O)c1cnccn1)B(O)O [bortezomib]
- effect of extended exposure on phage-mediated gene transfer (HEK 293 cells [1]; Tpell phage, MOI 1×10^6, bortezomib 10 nM for 24 h, luciferase at 48 h): robust, statistically significant, enhancement
- effect on phage-mediated luciferase gene expression, agents alone and combined (HEK 293 cells [1]; Tpell phage, MOI 1×10^6, drugs for 24 h, luciferase at 48 h (FIG. 9)): modest increase
- effect on plasmid-mediated luciferase expression (HEK 293 cells [3]): no effect
- cytotoxicity relative to the other proteasome inhibitors tested (HEK 293 cells [4]): least cytotoxic
- nuclear accumulation of phage DNA (copies of lambda phage genomic DNA per cell) (HEK 293 cells [5]): statistically significant increase

SMILES: C[C@H]1CCC/C=C/[C@@H]2C[C@H](O)C[C@H]2[C@H](O)/C=C/C(=O)O1 [brefeldin A]
- effect on phage-mediated luciferase gene transfer (HEK 293 cells [1]; [7]): no effect
- effect on phage-mediated luciferase gene transfer (COS cells; Tpell phage): no effect

SMILES: CCN(CC)CCCC(C)Nc1ccnc2cc(Cl)ccc12 (stereo not shown) [chloroquine]
- effect on phage-mediated luciferase gene transfer (COS cells; Tpell phage): statistically significant enhancement

SMILES: C/C1=C/C(=O)O[C@@H]2C[C@@H](CC[C@H](C)/C=C\C=C\CC1)O[C@@](O)([C@@H]1CSC(=O)N1)C2 [latrunculin A]
- effect on efficiency of plasmid DNA expression ([6]; latrunculin A 120 nM): no effect
- effect on adenoviral gene transfer efficiency (COS-7 cells): no effect

SMILES: COC(=O)Nc1nc2ccc(C(=O)c3cccs3)cc2[nH]1 [nocodazole]
- increase in plasmid gene transfer efficiency [6]: approx 50 fold

SMILES: COc1ccc2[nH]c([S+]([O-])Cc3ncc(C)c(OC)c3C)nc2c1 (stereo not shown) [omeprazole]
- effect on phage-mediated luciferase gene transfer (HEK 293 cells [1]; [7]): no effect
- effect on phage-mediated luciferase gene transfer (COS cells; Tpell phage): no effect

SMILES: CC(=O)O[C@H]1C(=O)[C@@]2(C)[C@H]([C@H](OC(=O)c3ccccc3)[C@]3(O)C[C@H](OC(=O)[C@H](O)[C@@H](NC(=O)c4ccccc4)c4ccccc4)C(C)=C1C3(C)C)[C@]1(OC(C)=O)CO[C@@H]1C[C@@H]2O [paclitaxel]
- increase in plasmid gene transfer efficiency [6]: approx 50 fold
